Columns and labels:
Alcohol-preferring rats = assay: Alcohol consumption test in rats (computerised drinkometer); assay type: in vivo, Male Wistar rats; details: 6% v/v ethanol, 0.1µg/kg i.p. once daily for 7 days, 1h prior to the 12h dark cycle
Description: Male Wistar rats, initially weighing 200g, were housed individually in suspended stainless steel cages. The animal colony room was controlled for temperature (22-24°C) and humidity (55%) and was maintained on a 12-hour dark-light cycle which began at 1900 hours. Rats were allowed free access to food, water and ethanol solutions. Water and ethanol solutions were presented in two custom-designed drinkometer tubes mounted on the front of each rat cage. To avoid bias generated by a position preference, the tube positions were randomly reversed on each ethanol presentation. Water and ethanol consumption were continuously monitored daily during the drinking cycle (1900 to 0700h). Minute-to-minute ethanol and water volume consumptions were recorded using a computerised drinkometer system. This system consists of pressure transducers embedded in the base of the drinking tube and accurately detects significant volume changes as small as 0.1ml. Ethanol drinking solutions were prepared by diluting 95% ethyl alcohol with distilled water to form 6% v/v concentrations. From the minute-to-minute volume recordings, the following variables were calculated : total ethanol volume; total ethanol preference; weight-adjusted ethanol volume and total minutes of ethanol drinking activity. […]

Rats = assay: Rat social interaction test (withdrawal from chronic treatment with a drug or substance of abuse); assay type: in vivo; details: rats withdrawn after diazepam 10mg/kg i.p. b.d. for 14 days; test compound 1µg/kg i.p. once daily immediately after withdrawal
Description: The method was based on that described by S. E. File, J. Neurosci. Methods, 1980, 2, 219-238. Rats were treated chronically with diazepam (10mg/kg i.p. b.d.) for 14 days and then withdrawn.

## Cc1[nH]cnc1CN1CCc2c(c3ccccc3n2C)C1=O.Cl [test compound, 2,3,4,5-tetrahydro-5-methyl-2-[(5-methyl-1H-imidazol-4-yl)methyl]-1H-pyrido[4,3-b]indol-1-one hydrochloride]
Alcohol-preferring rats
  ethanol drinking time: reduced
  ethanol intake: reduced
Rats
  withdrawal response (reduced social interaction): the withdrawal response was not observed

Source: patent EP0357416A2, “Use of serotonin antagonists in the treatment of drug addiction” (GLAXO GROUP LIMITED, priority 1988, dated 1990)
